Data from PubChem BioAssay AID1963837 (Molecular Pharmacology Branch, DTP, NCI, 2024).
Several values for one entry are separate records, joined by “and”; a condition that tells them apart may be missing. Equal values may be shown once.

Tested on: 843126-344-R-J1-PDC complex spheroid viability
Assay: Anticancer human tumor 843126-344-R-J1-PDC patient-derived melanoma cell line growth inhibition [POLQ]
Settings: for viability, T/C: stronger effect = lower value; for IC50: curve of compound
Description: Multicellular complex tumor spheroid response to Polymerase (POL) inhibitors (novobiocin, ART-558, RP6685) in combination with a variety of drugs and investigational agents in selected tumor cell lines
The POL inhibitors (novobiocin, ART-558, and RP6685) were evaluated both individually and in combination with standard of care and investigational anticancer small molecules within a complex spheroid model of solid tumors. . Complex spheroids include a stromal component modeled by human endothelial cells (HUVEC) and fibroblasts modeled by human mesenchymal stem cells (MSCs). The concentration ranges selected for each drug and investigational agent were based upon clinically achievable concentrations if the clinical Cmax of the agent was known.
Compounds. The drugs and investigational agents: novobiocin (NSC847541), ART-558 (NSC835418), RP-6685 (NSC848927), peposertib (NSC802822), ceralasertib (NSC780249), elimusertib (NSC800525), camonsertib (NSC841442), AZD-1390 (NSC803789), olaparib (NSC753686), talazoparib (NSC767125), rucaparib (NSC756644), sotorasib (NSC818433), MRTX-1133 (NSC836407), SN-38 (NSC673596), topotecan (NSC609699), epotoside (NSC141540), doxorubicin (NSC123127), gemcitabine (NSC613327), 5-fluorouracil (NSC19893), paclitaxel (NSC125973), vemurafenib (NSC761431), MSA-2 (NSC828583), SN-011 (NSC837082), adavosertib (NSC754352), prexasertib (NSC758257), carboplatin (NSC241240) and oxaliplatin (NSC266046), were obtained from the National Cancer Institute (NCI) Developmental Therapeutics Program Chemical Repository (21). The FDA-approved anticancer drug set is available from the Developmental Therapeutics Program at https://dtp.cancer.gov/organization/dscb/obtaining/. […] The stock solutions were prepared in dimethyl sulfoxide (DMSO, Sigma-Aldrich, St. Louis, MO, cat. D2650), except for the platinum compounds which were prepared in saline (Quality Biological, Gaithersburg, MD, cat. 114-055-101), at 800-fold the tested concentration and stored at -70 degrees C prior to their use. All drugs and investigational agents were tested over a range starting from a high concentration at or near the clinical Cmax and decreasing in half-log increments. If the clinical Cmax for an agent had not been determined, the highest concentration tested was 10 microM, except for SN-38, which was tested at a high concentration of 1 microM.
Cell Culture. All cells were maintained in an incubator at 37 degrees C and 5% CO2 with 95% humidity. The PDC lines were cultured according to standard operating procedures established by the NCI PDMR (https://pdmr.cancer.gov). Table 3 of the manuscript, lists the cell lines along with the number of the three cell types plated to form the mct-spheroids and media for tumor cell growth. After thawing, all PDC lines, except 997537-175-T-J1-PDC and 415267-285-R-J2-PDC, were cultured in Matrigel-coated flasks prepared with a working solution of 1X Ham's F-12 nutrient mix, without supplementation (Thermo Fisher Scientific, cat. 11765054), 100 U/mL penicillin-streptomycin (Thermo Fisher Scientific, cat. 15140122), and 2.5% Matrigel (Corning Inc., Corning, NY, cat. 354248) for the first three passages. The two PDC lines 997537-175-T-J1-PDC and 415267-285-R-J2-PDC were cultured on uncoated flasks. The 857933-349-R-J2-PDC line was cultured in 6C/Colon 1B media containing advanced DMEM/F-12 (Thermo Fisher Scientific, cat. 12634028), 10 mM HEPES (Thermo Fisher Scientific, cat. 15630080), 1X GlutaMAX supplement (Thermo Fisher Scientific, cat. 35050061), 0.1 mg/mL primocin (InvivoGen, San Diego, CA, cat. ant-pm-2), 10% defined fetal bovine serum, heat inactivated (HyClone Laboratories Inc., Logan, UT, cat. SH30070.03HI), 50% L-WRN conditioned media (ATCC, cat. CRL-3276), 1.25 mM N-Acetyl-L-cysteine (Sigma-Aldrich, cat. A9165), 10 mM nicotinamide (Sigma-Aldrich, cat. N0636), 1X B-27 supplement (Thermo Fisher Scientific, cat. 17504044), 1X N-2 supplement (Thermo Fisher Scientific, cat. […]
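Wherever viability, T/C is given: spheroids exposed to drugs for seven days before readout.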

C#Cc1c(F)ccc2cc(O)cc(-c3ncc4c(N5CC6CCC(C5)N6)nc(OCC56CCCN5CC(F)C6)nc4c3F)c12 (stereo unspecified)
viability, T/C (compound 0.0316 µM): 90.2% and 115% and 80.5% | viability, T/C (compound 0.1 µM): 116% and 88.3% and 91.5% | viability, T/C (compound 0.316 µM): 96.1% and 97.6% and 95.8% | viability, T/C (compound 1 µM): 78.2% and 100% and 82.2% | viability, T/C (compound 3.16 µM): 95.1% and 96.5% and 95.2% | viability, T/C (compound 10 µM): 87.4% and 85.2% and 85.5% | IC50: > 10000 nM

C=CC(=O)N1CCN(c2nc(=O)n(-c3c(C)ccnc3C(C)C)c3nc(-c4c(O)cccc4F)c(F)cc23)C(C)C1 (stereo unspecified)
viability, T/C (compound 0.0316 µM): 96.7% and 98.3% and 89.5% | viability, T/C (compound 0.1 µM): 85.1% and 110% and 73.2% | viability, T/C (compound 0.316 µM): 104% and 107% and 95.8% | viability, T/C (compound 1 µM): 104% and 85.4% and 106% | viability, T/C (compound 3.16 µM): 92.8% and 96.1% and 113% | viability, T/C (compound 10 µM): 67.2% and 91% and 79.3% | IC50: > 10000 nM

C=CCn1c(=O)c2cnc(Nc3ccc(N4CCN(C)CC4)cc3)nc2n1-c1cccc(C(C)(C)O)n1
viability, T/C (compound 0.00316 µM): 101% and 96.6% and 95.3% | viability, T/C (compound 0.01 µM): 89.5% and 86.3% and 96.3% | viability, T/C (compound 0.0316 µM): 95.7% (2×) and 111% | viability, T/C (compound 0.1 µM): 109% and 97.8% and 99.3% | viability, T/C (compound 0.316 µM): 91.6% and 93.7% and 98.2% | viability, T/C (compound 1 µM): 81.1% and 78.6% and 82.7% | IC50: > 1000 nM

CC(=O)O[C@H]1C(=O)[C@@]2(C)[C@H]([C@H](OC(=O)c3ccccc3)[C@]3(O)C[C@H](OC(=O)[C@H](O)[C@@H](NC(=O)c4ccccc4)c4ccccc4)C(C)=C1C3(C)C)[C@]1(OC(C)=O)CO[C@@H]1C[C@@H]2O
viability, T/C (compound 0.00949 µM): 65.3% and 60.5% | viability, T/C (compound 0.03 µM): 54.6% and 53.3% | viability, T/C (compound 0.0949 µM): 64.2% and 54.8% | viability, T/C (compound 0.3 µM): 75.2% and 57% | viability, T/C (compound 0.949 µM): 74.7% and 55.3% | viability, T/C (compound 3 µM): 76% and 66.8% | IC50: > 3000 nM

CC(C)n1c(=O)n(C)c2cnc3cc(F)c(-c4ccc(OCCCN5CCCCC5)nc4)cc3c21
viability, T/C (compound 0.0316 µM): 88.2% and 82.8% and 83.5% | viability, T/C (compound 0.1 µM): 74.9% and 88.6% and 77.2% | viability, T/C (compound 0.316 µM): 89% and 79.8% and 78.8% | viability, T/C (compound 1 µM): 86.1% and 87.7% and 92.9% | viability, T/C (compound 3.16 µM): 72.1% and 79.5% and 84.4% | viability, T/C (compound 10 µM): 72.5% and 79.1% and 55.2% | IC50: > 10000 nM

CC1COCCN1c1cc(-c2ccnn2C)c2ccnc(-c3ccn[nH]3)c2n1 (stereo unspecified)
viability, T/C (compound 0.0316 µM): 93.7% and 70.9% and 85.8% | viability, T/C (compound 0.1 µM): 87% and 64.9% and 70.9% | viability, T/C (compound 0.316 µM): 85.9% and 57.1% and 61.9% | viability, T/C (compound 1 µM): 44.4% and 47.7% and 48.8% | viability, T/C (compound 3.16 µM): 38.5% and 40.5% and 38.8% | viability, T/C (compound 10 µM): 33.1% and 23.9% and 32.7% | IC50: 858 nM and 836 nM and 903 nM

CC1COCCN1c1cc(C2(O)CC3CCC(C2)O3)c2cnn(-c3ccn[nH]3)c2n1 (stereo unspecified)
viability, T/C (compound 0.0316 µM): 93.2% and 82.1% and 81.5% | viability, T/C (compound 0.1 µM): 66.9% and 57.4% and 68.6% | viability, T/C (compound 0.316 µM): 63.7% and 52.7% and 51.1% | viability, T/C (compound 1 µM): 38% and 44.3% and 35.9% | viability, T/C (compound 3.16 µM): 29.8% and 23.2% and 26% | viability, T/C (compound 10 µM): 20% and 15.3% and 18.9% | IC50: 527 nM and 355 nM and 353 nM

CC1COCCN1c1cc(C2(S(C)(=N)=O)CC2)nc(-c2ccnc3[nH]ccc23)n1 (stereo unspecified)
viability, T/C (compound 0.0316 µM): 87.2% and 79.8% and 109% | viability, T/C (compound 0.1 µM): 93.7% and 82.8% and 102% | viability, T/C (compound 0.316 µM): 97.2% and 83.1% and 95% | viability, T/C (compound 1 µM): 81.4% and 97.7% and 89.5% | viability, T/C (compound 3.16 µM): 73.4% and 81.9% and 68% | viability, T/C (compound 10 µM): 49.9% and 55.9% and 55.2% | IC50: > 10000 nM

CCCS(=O)(=O)Nc1ccc(F)c(C(=O)c2c[nH]c3ncc(-c4ccc(Cl)cc4)cc23)c1F
viability, T/C (compound 0.0316 µM): 101% and 86.2% | viability, T/C (compound 0.1 µM): 91.1% and 76% | viability, T/C (compound 0.316 µM): 87.4% and 96% | viability, T/C (compound 1 µM): 85.6% and 76.9% | viability, T/C (compound 3.16 µM): 72.9% and 74.4% | viability, T/C (compound 10 µM): 91.5% and 59.1% | IC50: > 10000 nM

CC[C@@]1(O)C(=O)OCc2c1cc1n(c2=O)Cc2cc3c(CN(C)C)c(O)ccc3nc2-1
viability, T/C (compound 0.000316 µM): 84.4% and 108% and 96.4% | viability, T/C (compound 0.001 µM): 99.5% and 88.4% and 89.3% | viability, T/C (compound 0.00316 µM): 92.7% and 105% and 96.4% | viability, T/C (compound 0.01 µM): 88.6% and 93.8% and 85.1% | viability, T/C (compound 0.0316 µM): 73% and 63.1% and 67.9% | viability, T/C (compound 0.1 µM): 51.1% and 55.8% and 48.8% | IC50: > 100 nM and 93.3 nM

CCc1c2c(nc3ccc(O)cc13)-c1cc3c(c(=O)n1C2)COC(=O)[C@]3(O)CC
viability, T/C (compound 0.00316 µM): 62.8% and 69.6% and 70% | viability, T/C (compound 0.01 µM): 52.5% and 56.2% and 54.6% | viability, T/C (compound 0.0316 µM): 61.5% and 68% and 63% | viability, T/C (compound 0.1 µM): 71.1% and 62.4% and 61.4% | viability, T/C (compound 0.316 µM): 57% and 64% and 62.5% | viability, T/C (compound 1 µM): 53.9% and 45.5% and 50.1% | IC50: > 1000 nM

CCc1cc2c(N3CCc4c(cc(Cn5ccnc5)cc4-c4cn(C)nc4C(F)(F)F)C3=O)cc(C)nc2c(OC)n1
viability, T/C (compound 0.0316 µM): 103% and 106% and 77.7% | viability, T/C (compound 0.1 µM): 81.1% and 72.2% and 85.4% | viability, T/C (compound 0.316 µM): 76.4% and 87.8% and 98.1% | viability, T/C (compound 1 µM): 64.2% and 76.7% and 85.2% | viability, T/C (compound 3.16 µM): 71.5% and 72.6% and 64.6% | viability, T/C (compound 10 µM): 54.2% and 60.3% | IC50: > 10000 nM

CCc1cc2c(N3CCc4c(cc(Cn5ccnc5)cc4-c4cn(C)nc4C(F)(F)F)C3=O)ccnc2c(OC)n1
viability, T/C (compound 0.0316 µM): 85.3% and 83.1% and 106% | viability, T/C (compound 0.1 µM): 78.4% and 81% and 75.8% | viability, T/C (compound 0.316 µM): 84.9% and 88.6% and 90.4% | viability, T/C (compound 1 µM): 76% and 83.2% and 91.5% | viability, T/C (compound 3.16 µM): 74.6% and 78.3% and 72.3% | viability, T/C (compound 10 µM): 53.8% and 58.4% and 66.4% | IC50: > 10000 nM
